According to US9365583B2, “Substituted pyrazoles and uses thereof” (Genentech, Inc., priority 2013, dated 2016):

Target: T1, N-terminally GST-tagged DLK (catalytic domain amino acid 1-520) (Homo sapiens, UniProt Q12852)
T1 construct: N-terminally GST-tagged DLK (catalytic domain amino acid 1-520); purchased Carna Bioscience
T1 sequence (Q12852 1-520): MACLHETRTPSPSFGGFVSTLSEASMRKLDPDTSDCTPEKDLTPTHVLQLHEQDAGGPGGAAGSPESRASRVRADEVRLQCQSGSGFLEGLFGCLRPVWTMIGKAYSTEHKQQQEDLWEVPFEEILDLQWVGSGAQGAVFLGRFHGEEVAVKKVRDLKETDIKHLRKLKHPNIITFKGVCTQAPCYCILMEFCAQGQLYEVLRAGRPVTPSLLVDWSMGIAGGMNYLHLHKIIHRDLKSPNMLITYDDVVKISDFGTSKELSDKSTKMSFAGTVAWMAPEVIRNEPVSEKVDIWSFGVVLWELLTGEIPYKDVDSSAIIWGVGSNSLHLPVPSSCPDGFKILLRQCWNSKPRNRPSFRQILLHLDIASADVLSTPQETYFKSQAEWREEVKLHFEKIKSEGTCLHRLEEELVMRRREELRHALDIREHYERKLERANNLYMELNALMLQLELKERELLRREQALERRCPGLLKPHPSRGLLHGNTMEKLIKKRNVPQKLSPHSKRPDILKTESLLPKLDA
Assay: DLK TR-FRET inhibition assay
Type: biochemical
Details: 5 nM GST-DLK, 40 nM HIS-MKK4 K131M substrate, 30 μM ATP, 60 minutes at ambient temperature
Outline: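 5 nM GST-DLK (aa 1-520), 40 nM HIS-MKK4 K131M and 30 μM ATP reacted 60 min at ambient temperature in HEPES pH 7.5 buffer with 10 mM MgCl2, compound 1:3 serially diluted from 20 uM. TR-FRET detection of phospho-MKK4 used Eu-cryptate anti-phospho-MKK4 plus D2 anti-HIS, read after 3 h (665/615 nm).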

Structure (SMILES) | Ki [nM]
CC(C)n1nc(-c2cnc(N)c(OC(F)(F)F)c2)cc1[C@H]1[C@@H]2C[C@H](N3CCOCC3)C[C@@H]21 [compound 69, 5-(1-isopropyl-5-((1R,3r,5S,6r)-3-morpholinobicyclo[3.1.0]hexan-6-yl)-1H-pyrazol-3-yl)-3-(trifluoromethoxy)pyridin-2-amine] | 2.97
CC(C)n1nc(-c2cnc(N)c(CC(F)(F)F)c2)cc1[C@H]1[C@@H]2C[C@@H](N3CCOCC3)C[C@@H]21 [compound 281, 5-(1-isopropyl-5-((1R,3s,5S,6r)-3-morpholinobicyclo[3.1.0]hexan-6-yl)-1H-pyrazol-3-yl)-3-(2,2,2-trifluoroethyl)pyridin-2-amine] | 18.4
Nc1ncc(-c2cc([C@H]3[C@@H]4C[C@H](N5CCCOCC5)C[C@@H]43)n(CC(F)F)n2)cc1OC(F)(F)F [compound 256, 5-(5-((1R,3r,5S,6r)-3-(1,4-oxazepan-4-yl)bicyclo[3.1.0]hexan-6-yl)-1-(2,2-difluoroethyl)-1H-pyrazol-3-yl)-3-(trifluoromethoxy) pyridin-2-amine] | 1.1
CC(C)n1nc(-c2cnc(N)c(C(F)(F)F)c2)cc1[C@H]1[C@@H]2C[C@@H](n3cccn3)C[C@@H]21 [compound 110, 5-(5-((1R,3s,5S,6r)-3-(1H-pyrazol-1-yl)bicyclo[3.1.0]hexan-6-yl)-1-isopropyl-1H-pyrazol-3-yl)-3-(trifluoromethyl)pyridin-2-amine] | 3.89
CC(C)n1nc(-c2cnc3ccn([C@@H](C)c4ccccn4)c3c2)cc1[C@H]1[C@@H]2C[C@@H](N3CCOCC3)C[C@@H]21 [compound 24, 4-((1R,3R,5S,6r)-6-(1-isopropyl-3-(1-((S)-1-(pyridin-2-yl)ethyl)-1H-pyrrolo[3,2-b]pyridin-6-yl)-1H-pyrazol-5-yl)bicyclo[3.1.0]hexan-3-yl)morpholine] | 0.34
CC(C)n1nc(-c2cnc(N)c(C(F)(F)F)c2)cc1[C@H]1[C@@H]2C[C@H](OC3COC3)C[C@@H]21 [compound 287, 5-(1-isopropyl-5-((1R,3r,5S,6r)-3-(oxetan-3-yloxy)bicyclo[3.1.0]hexan-6-yl)-1H-pyrazol-3-yl)-3-(trifluoromethyl)pyridin-2-amine] | 6.3
CC(C)n1nc(-c2cnc(N)c(C(F)(F)F)c2)cc1[C@H]1[C@@H]2C[C@H](N(C)CC3COC3)C[C@@H]21 [compound 20, 5-(1-isopropyl-5-((1R,3r,5S,6r)-3-(methyl(oxetan-3-ylmethyl)amino)bicyclo[3.1.0]hexan-6-yl)-1H-pyrazol-3-yl)-3-(trifluoro-methyl)pyridin-2-amine] | 4.39
CC(C)n1nc(-c2cnc(N)c(C(F)(F)F)c2)cc1[C@H]1[C@@H]2C[C@@H](NCC(F)F)C[C@@H]21 [compound 254, 5-(5-((1R,3s,5S,6r)-3-((2,2-difluoroethyl)amino)bicyclo[3.1.0]hexan-6-yl)-1-isopropyl-1H-pyrazol-3-yl)-3-(trifluoromethyl) pyridin-2-amine] | 2.4
COC1CCN([C@@H]2C[C@@H]3[C@H](C2)[C@H]3c2cc(-c3cnc(N)c(OC(F)(F)F)c3)nn2C(C)C)CC1 [compound 246, 5-(1-isopropyl-5-((1R,3s,5S,6r)-3-(4-methoxypiperidin-1-yl)bicyclo[3.1.0]hexan-6-yl)-1H-pyrazol-3-yl)-3-(trifluoromethoxy) pyridin-2-amine] | 1.8
CC(C)n1nc(-c2cnc(N)c(C(F)(F)F)c2)cc1[C@H]1[C@@H]2C[C@H](N3CCO[C@@H](C)C3)C[C@@H]21 [compound 108, 5-(1-isopropyl-5-((1R,3r,5S,6S)-3-((S)-2-methylmorpholino)bicyclo[3.1.0]hexan-6-yl)-1H-pyrazol-3-yl)-3-(trifluoromethyl) pyridin-2-amine] | 1.6
CC(C)n1nc(-c2cnc(N)c(C(F)(F)F)c2)cc1[C@H]1[C@@H]2C[C@@H](N3CCN4CCCC4C3)C[C@@H]21 (single isomer, unassigned) [compound 261] | 1.2
CC(C)n1nc(-c2cnc(N)c(OC(F)(F)F)c2)cc1[C@H]1[C@@H]2C[C@@]3(CCN3C3COC3)C[C@@H]21 [compound 140, 5-(1-isopropyl-5-((1′R,2r,5′S,6′r)-1-(oxetan-3-yl)spiro[azetidine-2,3′-bicyclo[3.1.0]hexan]-6′-yl)-1H-pyrazol-3-yl)-3-(trifluoro-methoxy)pyridin-2-amine] | 6.59

The remaining lines, values ahead:

Ki [nM] | Structure (SMILES)
3.34 | CC(C)n1nc(-c2cnc(N)c(OC(F)F)c2)cc1[C@H]1[C@@H]2C[C@@H](N3CCOCC3)C[C@@H]21 [compound 137, 3-(difluoromethoxy)-5-(1-isopropyl-5-((1R,3s,5S,6r)-3-morpholino-bicyclo[3.1.0]hexan-6-yl)-1 H-pyrazol-3-yl)pyridin-2-amine]
62.2 | CC(C)n1nc(-c2cnc(N)c(C(F)(F)F)c2)cc1[C@@H]1[C@H]2CC[C@H](O)[C@H]21 (single isomer, unassigned) [compound 142, 6-(3-(6-amino-5-trifluoromethylpyridin-3-yl)-1-isopropyl-1H-pyrazol-5-yl)bicyclo[3.1.0]hexan-2-ol]
6.6 | CC(C)n1nc(-c2cnc(N)c(OC(F)F)c2)cc1[C@H]1[C@@H]2CC(F)(F)C[C@@H]21 [compound 216, 5-(5-((1R,5S,6r)-3,3-difluorobicyclo [3.1.0]hexan-6-yl)-1-isopropyl-1H-pyrazol-3-yl)-3-(difluoro-methoxy)pyridin-2-amine]
3.3 | CO[C@H]1CCN([C@H]2C[C@@H]3[C@H](C2)[C@H]3c2cc(-c3cnc(N)c(C(F)(F)F)c3)nn2CC(F)F)C1 [compound 145, 5-(1-(2,2-difluoroethyl)-5-((1R,3r,5S,6S)-3-((S)-3-methoxypyrrolidin-1-yl)bicyclo[3.1.0]hexan-6-yl)-1H-pyrazol-3-yl)-3-(trifluoro-methyl)pyridin-2-amine]
0.52 | CC(C)n1nc(-c2cnc(N)c(OC(F)F)c2)cc1[C@H]1[C@@H]2C[C@H](N3CCO[C@@H](C)C3)C[C@@H]21 [compound 78, 3-(difluoromethoxy)-5-(1-isopropyl-5-((1R,3r,5S,6S)-3-((S)-2-methylmorpholino)bicyclo[3.1.0]hexan-6-yl)-1H-pyrazol-3-yl) pyridin-2-amine]
4.23 | CC(C)n1nc(-c2cnc(N)c(OC(F)(F)F)c2)cc1[C@H]1[C@@H]2C[C@@H](N3CCO[C@@H](C)C3)C[C@@H]21 [compound 113, 5-(1-isopropyl-5-((1R,3s,5S,6S)-3-((S)-2-methylmorpholino)bicyclo[3.1.0]hexan-6-yl)-1H-pyrazol-3-yl)-3-(trifluoromethoxy) pyridin-2-amine]
5.7 | COCCN(C)[C@H]1C[C@@H]2[C@H](C1)[C@H]2c1cc(-c2cnc(N)c(C(F)(F)F)c2)nn1C(C)C [compound 284, 5-(1-isopropyl-5-((1R,3r,5S,6r)-3-((2-methoxyethyl)(methyl)amino)bicyclo[3.l.0]hexan-6-yl)-1H-pyrazol-3-yl)-3-(trifluoromethyl) pyridin-2-amine]
5.5 | CC(C)n1nc(-c2cnc(N)c(OC(F)F)c2)cc1[C@H]1[C@@H]2C[C@@H](OC3COC3)C[C@@H]21 [compound 231, 3-(difluoromethoxy)-5-(1-iso-propyl-5-((1R,3s,5S,6r)-3-(oxetan-3-yloxy)bicyclo[3.1.0]hexan-6-yl)-1H-pyrazol-3-yl)pyridin-2-amine]
2.83 | CC(C)n1nc(-c2cnc(N)c(OC(F)(F)F)c2)cc1[C@H]1[C@@H]2C[C@H](N3CC(F)C3)C[C@@H]21 [compound 29, 5-(5-((1R,3r,5S,6r)-3-(3-fluoro-azetidin-1-yl)bicyclo[3.1.0]hexan-6-yl)-1-isopropyl-1H-pyrazol-3-yl)-3-(trifluoromethoxy) pyridin-2-amine]
1.88 | CC(C)n1nc(-c2cnc(N)c(OC(F)(F)F)c2)cc1[C@H]1[C@@H]2C[C@H](N3CC4(COC4)C3)C[C@@H]21 [compound 57, 5-(5-((1R,3r,5S,6r)-3-(2-oxa-6-azaspiro[3.3]heptan-6-yl)bicyclo [3.1.0]hexan-6-yl)-1-isopropyl-1H-pyrazol-3-yl)-3-(trifluoro-methoxy)pyridin-2-amine]
2.6 | CC(C)n1nc(-c2cnc(N)c(OC(F)(F)F)c2)cc1[C@H]1[C@@H]2C[C@@H](N3CCNCC3)C[C@@H]21 [compound 245, 5-(1-isopropyl-5-((1R,3s,5S,6r)-3-(piperazin-1-yl)bicyclo[3.1.0]hexan-6-yl)-1H-pyrazol-3-yl)-3-(trifluoromethoxy)pyridin-2-amine]
> 1600 | CC(C)n1nc(-c2cnc(N)c(C(F)(F)F)c2)cc1[C@@H]1[C@@H]2C[C@H](N3CCOCC3)C[C@@H]21 [compound 126, 5-(1-isopropyl-5-((1R,5S,6s)-3-morpholinobicyclo[3.1.0]hexan-6-yl)-1H-pyrazol-3-yl)-3-(trifluoro-methyl)pyridin-2-amine]
